Source: patent US4801612A, “Method of inhibiting inflammatory response” (Regents of the University of California, priority 1986, dated 1989)

Key:
rat hind paw [1] = test: Heat-induced paw edema and protein extravasation (Evans blue), hind paw in 58° C. water for 5 min.; assay type: in vivo
Protocol: Male albino rats weighing 200 to 280 g were anesthetized with sodium pentobarbital, 60 mg/kg i.p., and a right jugular vein cannulated for drug injections. Human/rat CRF (at various dosages described below) or saline, and Evans blue dye, 50 mg/kg, were injected intravenously 10 and 3 min., respectively, before immersion of the hind paw in 48° C. or 58° C. water for 5 min. The frequency of paw withdrawal from the water was then counted.
(§1) At the end of the exposure period, the animals were sacrificed and the dorsal skin, between the calcaneal process and phalanges, was removed from both paws, weighed, and each placed in 4 ml of formamide for 3 days at room temperature. The extracted Evans blue was quantified colorimetrically at 600 nm with readings from the untreated paw skin used as the blank values.
Protein extravasation was measured by injecting a dye into a blood compartment of the animal. The dye binds to blood proteins and when the permeability of the tissue is increased by the heat, the dye leaks into the skin of the paw. The skin of the paw was excised, the dye extracted, and the amount of dye in the skin was measured to provide an index of the skin permeability changes that accompany the heat damage. […] In a manner analogous to that described above for administration of CRF, sauvagine was administered and paws of the anesthetized recipients exposed to water at 58° C. Saline was administered to a control group. The dose of sauvagine was 5 μg/kg given i.v. 5 min. before paw immersion.
In addition, other groups of rats were administered eithe rmorphine sulfate or dexamethasone, and groups of rats were administered saline as controls.

rat hind paw [2] = test: Heat-induced paw edema and protein extravasation, hind paw in 48° C. water for 5 min.; assay type: in vivo; conditions: sauvagine 5 μg/kg i.v. 5 min. before
Protocol: Male albino rats weighing 200 to 280 g were anesthetized with sodium pentobarbital, 60 mg/kg i.p., and a right jugular vein cannulated for drug injections. […] The frequency of paw withdrawal from the water was then counted. Leakage of Evans blue dye into the paw skin becomes visible within 2 min. At water temperatures of 58° C., the average dye content was 364±17 μg/paw for rats receiving saline.
as §1
FIG. 3 illustrates the inhibition by CRF of heat-induced tissue edema, as measured by changes in skin weight. When the paw of an untreated, anesthetized rat is placed in warm water (48° C.) for 5 min., the paw swells and this paw edema can be measured simply by weighing the heated paw skin and comparing its weight to the contralateral, unheated paw skin. If just saline (that is, isotonic salt water) is injected as the control procedure, the percent increase in weight (with respect to unheated paw) is 72%.

[3] = Mean arterial blood pressure (MAP); assay type: in vivo, rat; conditions: s.c. 60 min. before electrical stimulation of the saphenous nerve
Protocol: For injections of drugs into the brain, a 21-gauge guide cannula was stereotaxically implanted into the lateral ventricle and a 28-gauge internal cannula coupled to a Hamilton microsyringe was used to deliver a 5-μl volume of drug solution to the brain. The site of injection was verified by injections of 0.5% solutions of methylene blue into the same cannula. In some experiments, blood pressure was measured from a cannulated carotid artery coupled to a Narcobiosystems strain gauge, cardiotachometer and polygraph. Mean arterial blood pressure (MAP) was calculated as 1/3 pulse pressure plus diastolic pressure.
As has been known, CRF and related peptides produce hypotension in anesthetized and unanesthetized animals. […] Neither does the inflammation inhibition of the present invention appear to have any associaton with the hypotensive properties of CRF and its analogs.

[4] = 0.005 mg/kg i.v., 5 min. before exposure
[5] = Table I, sheep CRF at 0.168 mg/kg i.v., sauvagine at 5 μg/kg i.v.
[6] = 0.94 mg/kg i.v., 20 min. before exposure
[7] = 3.75 mg/kg i.v., 20 min. before exposure
[8] = 3.0 mg/kg i.v., 5 min. before exposure
[9] = 0.50 mg/kg i.v., 5 min. before exposure

## sauvagine
Rat hind paw [1]; [4]
  % Weight Increase: 51 ± 11%
  Dye μg/paw: 86 ± 18 μg/paw
Rat hind paw [1]; [5]
  reduction of edema relative to saline: about comparable to the sheep CRF at 168 μg/kg i.v. in reducing edema
  reduction of protein extravasation relative to saline: even more effective in reducing protein extravasation
Rat hind paw [2]
  dye increase: 13.7 ± 3.5 μg/paw
  paw skin weight increase: 4.9%+2.0

## dynorphin (1-13)
Rat hind paw [1]; 940 μg/kg
  reduction of edema (in words): did not
  reduction of protein extravasation (in words): did not
Rat hind paw [1]; [6]
  % Weight Increase: 194 ± 6%
  Dye μg/paw: 411 ± 15 μg/paw
Rat hind paw [1]; 3750 μg/kg i.v.
  reduction of edema (in words): did reduce edema
  reduction of protein extravasation (in words): did reduce edema and protein extravasation
Rat hind paw [1]; [7]
  % Weight Increase: 87 ± 17%
  Dye μg/paw: 223 ± 37 μg/paw

## CN1CC[C@]23c4c5ccc(O)c4O[C@H]2[C@@H](O)C=C[C@H]3[C@H]1C5.O=S(=O)(O)O [morphine SO4, morphine sulfate, reference compound]
Rat hind paw [1]; [8]
  % Weight Increase: 157 ± 12%
  Dye μg/paw: 290 ± 36 μg/paw

## CC[C@H](C)[C@H](NC(=O)[C@@H](NC(=O)[C@H](CCC(=O)O)NC(=O)[C@H](CCSC)NC(=O)[C@H](CC(C)C)NC(=O)[C@H](CCCCN)NC(=O)[C@H](CCCNC(=N)N)NC(=O)[C@H](CC(N)=O)NC(=O)[C@H](CO)NC(=O)[C@H](Cc1c[nH]cn1)NC(=O)[C@H](C)NC(=O)[C@H](CCC(N)=O)NC(=O)[C@H](CCC(N)=O)NC(=O)[C@H](C)NC(=O)[C@H](CC(C)C)NC(=O)[C@H](CCC(N)=O)NC(=O)[C@H](CCC(=O)O)NC(=O)[C@H](C)NC(=O)[C@H](CCCNC(=N)N)NC(=O)[C@H](C)NC(=O)[C@H](CCSC)NC(=O)[C@H](CCC(=O)O)NC(=O)[C@H](CC(C)C)NC(=O)[C@@H](NC(=O)[C@H](CCC(=O)O)NC(=O)[C@H](CCCNC(=N)N)NC(=O)[C@H](CC(C)C)NC(=O)[C@H](CC(C)C)NC(=O)[C@H](Cc1c[nH]cn1)NC(=O)[C@H](Cc1ccccc1)NC(=O)[C@@H](NC(=O)[C@H](CC(C)C)NC(=O)[C@H](CC(=O)O)NC(=O)[C@H](CC(C)C)NC(=O)[C@H](CO)NC(=O)[C@@H](NC(=O)[C@@H]1CCCN1C(=O)[C@@H]1CCCN1C(=O)[C@H](CCC(=O)O)NC(=O)[C@H](CCC(=O)O)NC(=O)[C@@H](N)CO)[C@@H](C)CC)[C@@H](C)O)C(C)C)[C@@H](C)CC)C(N)=O [rCRF, Corticotropin Releasing Factor]
[3]
  effect on mean arterial pressure: did not lower mean arterial pressure

## C[C@@H]1C[C@H]2[C@@H]3CCC4=CC(=O)C=C[C@]4(C)[C@@]3(F)[C@@H](O)C[C@]2(C)[C@@]1(O)C(=O)CO [dexamethasone, reference compound]
Rat hind paw [1]; [9]
  % Weight Increase: 170 ± 14%
  Dye μg/paw: 375 ± 23 μg/paw
Rat hind paw [1]; doses of Table I
  inhibition of edema (in words): neither morphine nor dexamethasone inhibits either edema
  inhibition of protein extravasation / dye leakage (in words): neither morphine nor dexamethasone inhibits
